# Measured values from PMC2228077, “The bioavailability of oral GI147211 (GG211), a new topoisomerase I inhibitor” (British Journal of Cancer, 1997).
# Where “and” joins values, the source holds several entries; their conditions need not be identical. Equal values may be shown once. Where a name gives a salt, the structure may show the parent alone.
# Columns and labels:
# [1] = Toxicity assessment (CTC criteria) in patients, oral day 1 + i.v. days 2-5 every 3 weeks; format: in vivo, human; settings: for Abdominal discomfort, drug-related toxicity per course / Diarrhoea, drug-related toxicity per course / Nausea, drug-related toxicity per course / Stomatitis, drug-related toxicity per course: CTC grade 1; for Abdominal discomfort, drug-related toxicity per course / Diarrhoea, drug-related toxicity per course / Nausea, drug-related toxicity per course / Stomatitis, drug-related toxicity per course / Fatigue, drug-related toxicity per course / Vomiting, drug-related toxicity per course: Table 2
# Excerpt: (§1) British Journal of Cancer (1997) 76(7), 946-951 ? 1997 Cancer Research Campaign The bloavailability of oral Gil 47211 (GG21 1), a new topoisomerase I inhibitor CJH Gerrits', JHM Schellens', GJ Creemers', P Wissel2, ASTh Planting', JF Pritchard2, S DePee2, M de Boer-Dennert', M Harteveld' and J Verweij' 'Department of Medical Oncology, Rotterdam Cancer Institute (Daniel den Hoed Kliniek) and University Hospital, The Netherlands; 2Glaxo Wellcome, Department of Pharmacokinetics, NC, USA Summary Topoisomerase I inhibitors are new compounds of interest for cancer chemotherapy. We performed a study with Gl147211, a new semisynthetic camptothecin analogue, to determine the absolute bioavailability of the drug given orally. […] Gi147211 was given orally on day 1 and as a 30-min infusion daily on days 2-5. The treatment course was repeated every 3 weeks. In subsequent patient cohorts, the dose of the oral formulation was escalated from 1.5 mg m-2 to 6.0 mg m-2; the dose for i.v. administration was fixed at 1.2 mg m-2. Plasma pharmacokinetics was performed on day 1 and 2 of the first course and on day 1 of the second course using a validated high-performance liquid chromatographic assay. […] Keywords: G1147211 (GG211); bioavailability; topoisomerase I inhibitor; phase I study G1147211 [7-(methylpiperazinomethylene)-10,11-ethylenedioxy- 20(S)-camptothecin dihydrochloride] is a water-soluble semisyn- thetic analogue of camptothecin (CPT). […] Its further development was stopped because of unpredictable and severe myelosuppression, gastro- intestinal toxicity and haemorrhagic cystitis (Gottlieb et al, 1970; Creaven et al, 1972; Muggia et al, 1972). Interest in CPT was renewed in the 1980s, because topoiso- merase I was identified as the single cellular target of CPT (Hsiang et al, 1988 1989), and an overexpression of topoisomerase I was found in various tumour cell lines but not in normal tissues (Giovanella et al, 1989; Hirabayashi et al, 1992). Topoisomerase I is a nuclear enzyme that resolves topological problems of the torsionally strained (supercoiled) DNA by forming a covalent adduct between topoisomerase I and the DNA, termed the cleav- able complex. This catalytic intermediate creates single-strand DNA breaks, allowing the DNA molecule to rotate around the intact DNA strand at the cleavage site, leading to a relaxation of Received 29 November 1996 Revised 27 March 1997 Accepted 1 April 1997 Correspondence to: CJH Gerrits, Department of Medical Oncology, Rotterdam Cancer Institute, (Daniel den Hoed Kliniek) and University Hospital, Groene Hilledijk 301, 3075 EA Rotterdam, The Netherlands the DNA molecule, and in this way replication, transcription and other DNA functions can proceed. These enzyme-bridged breaks are then resealed by topoisomerase I (Champoux, 1976; Muller, 1985; Muller et al, 1985; Camilloni et al, 1989). […] It has been documented that camptothecin (CPT) interferes with the breakage-reunion process of topoiso- merase I by stabilizing the enzyme-DNA cleavable complexes (Liu et al, 1989).
# [2] = mouse, in vivo; cited from earlier work
# [3] = Plasma pharmacokinetics and absolute bioavailability, oral day 1 vs 30-min i.v. infusion day 2, patients with solid tumours; design: mean maximal plasma concentration (Cmax) after intravenous dosing: dose or concentration left out as unconfirmed
# Excerpt: as §1
# [4] = oral 6.0 mg m-2 level, discussion
# [5] = individual patients 1-19, i.v. 1.2 mg m-2, Table 3
# [6] = individual patients, oral 6 mg m-2, Fed (after breakfast), Tables 3 and 4
# [7] = individual patients, oral 6 mg m-2, fasted, Table 3
# [8] = oral 6.0 mg m-2, lactone, Table 4
structure (smiles),measurement,setting,value
"CC[C@@]1(O)C(=O)OCc2c1cc1n(c2=O)Cc2c-1nc1cc3c(cc1c2CN1CCN(C)CC1)OCCO3 [GI147211, 7-(methylpiperazinomethylene)-10,11-ethylenedioxy-20(S)-camptothecin dihydrochloride]",ANC nadir,"[1]; 6.0 mg m-2 level, the one case with CTC grade IV",9e+07 L⁻¹
same,courses in which erythrocyte transfusions were given,[1]; CTC grade I-II anaemia occurred regularly,24 out of 47
same,"platelet count, range",[1]; CTC grade III-IV thrombocytopenia,4-40 x 109 l-1
same,courses with fatigue CTC grade II,[1]; Table 2 footnote c,Four
same,"Abdominal discomfort, drug-related toxicity per course","[1]; Total, n = 47 courses",6 courses
same,"Diarrhoea, drug-related toxicity per course","[1]; Total, n = 47 courses",1 courses
same,"Nausea, drug-related toxicity per course","[1]; Total, n = 47 courses",24 courses
same,"Stomatitis, drug-related toxicity per course","[1]; Total, n = 47 courses",2 courses
same,"Fatigue, drug-related toxicity per course","[1]; Total, n = 47 courses",16 courses
same,myelotoxicity,[1]; first two dose levels (1.5 and 3.0 mg m-2 oral),not observed
same,"duration of severe granulocytopenia, range","[1]; human, in vivo",7 to 19 days
same,"duration of severe thrombocytopenia, range","[1]; human, in vivo",3 to 16 days
same,median duration of severe granulocytopenia (first occurrence to recovery to CTC grade II),"[1]; human, in vivo",7 days
same,median duration of severe thrombocytopenia (first occurrence to recovery to CTC grade II),"[1]; human, in vivo",8 days
same,nausea and vomiting after oral administration compared with intravenous dosing,"[1]; human, in vivo",not different
same,neutropenic sepsis (main serious adverse event),"[1]; human, in vivo",one
same,patients complaining of mild fatigue,"[1]; human, in vivo",34%
same,patients with treatment delay because of slow recovery of mild leucopenia,"[1]; human, in vivo",six
same,renal and liver toxicity,"[1]; human, in vivo",not reported
same,diarrhoea after a single oral administration,"[1]; human, in vivo, po",did not result in diar- rhoea
same,tolerability of oral administration,"[1]; human, in vivo, po",well tolerated
same,courses with mild leucopenia CTC grade I-II,[1]; of 47 courses,17 courses
same,"mild leucopenia CTC grade I-II, share of courses",[1]; of 47 courses,36.2%
same,"nausea CTC grade I, share of courses",[1]; of 47 courses,51.6%
same,"vomiting CTC grade I, number of courses",[1]; of 47 courses,9 courses
same,"vomiting CTC grade I, share of courses",[1]; of 47 courses,19.1%
same,reversible CTC grade I peripheral neuropathy,[1]; one patient,2.1%
same,day of the platelet nadir,[1]; [4],8 days
same,"day of the platelet nadir, range",[1]; [4],3 to 16 days
same,onset of neutropenia CTC grade III-IV,"[1]; oral 6.0 mg m-2 day 1 + i.v. 1.2 mg m-2 days 2-5, discussion",7 to 19 days
same,"Abdominal discomfort, drug-related toxicity per course",[1]; oral dose level 1.5 mg m-2,0 courses
same,"Diarrhoea, drug-related toxicity per course",[1]; oral dose level 1.5 mg m-2,0 courses
same,"Nausea, drug-related toxicity per course",[1]; oral dose level 1.5 mg m-2,4 courses
same,"Stomatitis, drug-related toxicity per course",[1]; oral dose level 1.5 mg m-2,0 courses
same,"Fatigue, drug-related toxicity per course",[1]; oral dose level 1.5 mg m-2,4 courses
same,"Vomiting, drug-related toxicity per course",[1]; oral dose level 1.5 mg m-2,2 courses
same,"Abdominal discomfort, drug-related toxicity per course",[1]; oral dose level 3.0 mg m-2,3 courses
same,"Diarrhoea, drug-related toxicity per course",[1]; oral dose level 3.0 mg m-2,0 courses
same,"Nausea, drug-related toxicity per course",[1]; oral dose level 3.0 mg m-2,4 courses
same,"Stomatitis, drug-related toxicity per course",[1]; oral dose level 3.0 mg m-2,1 courses
same,"Fatigue, drug-related toxicity per course",[1]; oral dose level 3.0 mg m-2,2 courses
same,"Vomiting, drug-related toxicity per course",[1]; oral dose level 3.0 mg m-2,2 courses
same,courses postponed for 1 week because of mild leucopenia with slow recovery,[1]; oral dose level 6.0 mg m-2,10 out of 30
same,courses with CTC grade III-IV granulocytopenia,[1]; oral dose level 6.0 mg m-2,5 out of 30
same,courses with CTC grade III-IV thrombocytopenia,[1]; oral dose level 6.0 mg m-2,4 out of 30
same,"Abdominal discomfort, drug-related toxicity per course",[1]; oral dose level 6.0 mg m-2,3 courses
same,"Diarrhoea, drug-related toxicity per course",[1]; oral dose level 6.0 mg m-2,1 courses
same,"Nausea, drug-related toxicity per course",[1]; oral dose level 6.0 mg m-2,16 courses
same,"Stomatitis, drug-related toxicity per course",[1]; oral dose level 6.0 mg m-2,1 courses
same,"Fatigue, drug-related toxicity per course",[1]; oral dose level 6.0 mg m-2,10 courses
same,"Vomiting, drug-related toxicity per course",[1]; oral dose level 6.0 mg m-2,7 courses
same,"abdominal discomfort, mostly cramping, share of courses",[1]; six courses,13%
same,nadir for neutropenia,[1]; summary,8 days
same,nadir for thrombocytopenia,[1]; summary,15 days
same,"alopecia grade I, share of patients",[1]; three patients,17%
same,median platelet count,[1]; three patients with CTC grade III-IV thrombocytopenia,2.5e+10 L⁻¹
same,"mild headache, share of courses","[1]; two courses, not dose dependent",4.2%
same,"vomiting CTC grade II, share of cycles",[1]; two cycles,4.2%
same,absolute bioavailability,[2],2-5%
same,"Oral AUC total, mean","[3]; all oral doses 1.5-6 mg m-2, total = lactone plus acid, Table 3",36.33 ng·h/mL
same,"intrapatient variability of the absolute bioavailability, median",[3]; course 1 vs course 2,31%
same,"intrapatient variability of the absolute bioavailability, range",[3]; course 1 vs course 2,3-88%
same,"absolute bioavailability, range between patients","[3]; human, in vivo",4.8-24.3%
same,mean maximal plasma concentration (Cmax) after intravenous dosing,"[3]; human, in vivo",21.76 ng/mL
same,"i.v. AUC, mean","[3]; human, in vivo, iv, 1.2 mg",31.84 ng·h/mL
same,cases with Tmax < 0.5 h,"[3]; human, in vivo, po",13 of 19
same,dose dependence of oral bioavailability,"[3]; human, in vivo, po",not dose dependent
same,median Tmax,"[3]; human, in vivo, po",0.5 h
same,"terminal half-life after oral administration (lactone), range","[3]; human, in vivo, po",2.0 to 13.0 h
same,Oral Tmax,"[3]; human, in vivo, po, 1.5 mg",0.25 h
same,"Absolute bioavailability fasted, mean","[3]; human, in vivo, po, 6 mg",11.4%
same,"Absolute bioavailability fed, mean","[3]; human, in vivo, po, 6 mg",11.2%
same,"Oral Tmax fasted, mean","[3]; human, in vivo, po, 6 mg",0.65 h
same,"Oral Tmax fed, mean","[3]; human, in vivo, po, 6 mg",0.69 h
same,influence of fasting or fed state on bioavailability,"[3]; human, in vivo, po, 6 mg",no significant influence
same,influence of fed or fasted state on Tmax,"[3]; human, in vivo, po, 6 mg",not significantly influenced
same,mean maximal plasma concentration (Cmax) after oral dosing,"[3]; human, in vivo, po, 6 mg",4.02 ? 3.57 ng ml-1
same,"i.v. t1/2, mean","[3]; i.v. 1.2 mg m-2, 13 patients of 6.0 mg m-2 level, Table 4",8.53 h
same,Oral AUC total,"[3]; individual patient 18, oral 6 mg m-2, Fed, lactone plus acid, Table 3",14.69 ng·h/mL
same,i.v. AUC,[3]; [5],19.11 ng·h/mL
same,i.v. t1/2,[3]; [5],6.2 h (2×) and 6.0 h and 14.3 h and 5.6 h and 6.7 h and 7.0 h and 5.2 h and 9.5 h and 10.9 h and 10.5 h and 8.9 h and 6.8 h and 4.5 h and 18.6 h and 14.6 h and 7.2 h and 1.9 h and 4.9 h
same,Oral t1/2,"[3]; individual patients, oral 1.5 mg m-2, Table 3",2.5 h and 4.0 h
same,Oral AUC total,"[3]; individual patients, oral 1.5 mg m-2, lactone plus acid, Table 3",3.12 ng·h/mL and 11.16 ng·h/mL
same,Oral t1/2,"[3]; individual patients, oral 3 mg m-2, Table 3",12.2 h and 7.7 h and 9.5 h and 5.1 h
same,Oral AUC total,"[3]; individual patients, oral 3 mg m-2, lactone plus acid, Table 3",70.82 ng·h/mL and 12.81 ng·h/mL and 15.21 ng·h/mL and 24.05 ng·h/mL
same,Oral t1/2,"[3]; individual patients, oral 3 mg m-2, second course (C2), Table 3",2.0 h and 11.7 h
same,Absolute bioavailability Lactone,[3]; [6],10.5% and 11.9%
same,Oral t1/2,[3]; [6],8.7 h and 6.0 h (2×) and 8.2 h and 11.1 h and 11.9 h and 4.1 h and 3.4 h and 3.5 h
same,Absolute bioavailability Lactone,[3]; [7],11.1%
same,Absolute bioavailability Total,[3]; [7],11.1%
same,Oral t1/2,[3]; [7],4.2 h and 4.5 h and 4.3 h (2×) and 6.1 h and 10.4 h and 9.7 h and 7.8 h and 6.2 h and 13.0 h and 6.7 h and 5.0 h and 3.7 h
same,Oral AUC total,"[3]; individual patients, oral 6 mg m-2, fasted, lactone plus acid, Table 3",157.68 ng·h/mL and 30.60 ng·h/mL and 36.73 ng·h/mL and 39.35 ng·h/mL and 55.59 ng·h/mL and 27.76 ng·h/mL and 13.89 ng·h/mL and 28.78 ng·h/mL and 30.71 ng·h/mL and 40.52 ng·h/mL and 40.50 ng·h/mL
same,Oral t1/2,"[3]; individual patients, oral 6 mg m-2, second course (C2), Table 3",7.8 h and 7.2 h
same,courses in which plasma concentrations could be measured at 24 h,[3]; oral,21 % of courses
same,courses in which plasma concentration-time curves could be measured up to 12 h,"[3]; oral 6.0 mg m-2, lactone and total",68 % of courses
same,"Oral t1/2 fasted, mean",[3]; [8],6.61 h
same,"Oral t1/2 fed, mean",[3]; [8],6.84 h
